≈ marks a conversion by molar mass, not a printed value.
Key:
[1] = biological target: T1, Quinolone resistance protein NorA (Staphylococcus aureus) (UniProt P0A0J7); conditions: 1199B
T1 sequence (whole entry): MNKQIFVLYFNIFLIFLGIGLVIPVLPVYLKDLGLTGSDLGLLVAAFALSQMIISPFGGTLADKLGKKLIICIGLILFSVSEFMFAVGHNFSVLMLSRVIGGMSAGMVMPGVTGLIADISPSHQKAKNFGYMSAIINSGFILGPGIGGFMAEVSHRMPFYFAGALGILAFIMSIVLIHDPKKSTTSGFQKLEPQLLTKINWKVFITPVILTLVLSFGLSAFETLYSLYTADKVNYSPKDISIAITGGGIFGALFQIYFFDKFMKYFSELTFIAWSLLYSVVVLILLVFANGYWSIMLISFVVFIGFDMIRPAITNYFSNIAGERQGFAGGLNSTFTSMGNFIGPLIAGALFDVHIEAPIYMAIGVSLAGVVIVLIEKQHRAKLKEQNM

Staphylococcus aureus [2] = assay: microbe, parasite or virus in culture; conditions: Staphylococcus aureus, 1199, 24 h
Description: Antimicrobial activity against Staphylococcus aureus 1199 after 24 hrs

Staphylococcus aureus [3] = assay: microbe, parasite or virus in culture; conditions: 1199B, 24 h
Description: Antimicrobial activity against Staphylococcus aureus 1199B after 24 hrs

MEC [1]	SMILES	MIC (Staphylococcus aureus [2])	MIC (Staphylococcus aureus [3])
25 µg/mL	COC(=O)[C@H]1[C@H]2C[C@@H]3c4[nH]c5cc(OC)ccc5c4CCN3C[C@H]2C[C@@H](OC(=O)c2cc(OC)c(OC)c(OC)c2)[C@@H]1OC	–	–
–	O=C(O)c1cn(C2CC2)c2cc(N3CCNCC3)c(F)cc2c1=O [CIPROFLOXACIN]	0.25 µg/mL (≈ 0.754 µM)	8 µg/mL (≈ 24.1 µM)
